The source made the active and inactive calls. No cut-off for these calls is given here.
How the values were obtained:
Helicobacter pylori [1] = experiment: In vivo protection against Helicobacter pylori ATCC 43504 infected in BALB/c mouse gastric mucosa model assessed as appearance of intact epithelium at high dose administered once a day for 2 weeks by HE staining based analysis; assay type: functional, organism-based
Helicobacter pylori [2] = experiment: (§1) Protection against Helicobacter pylori ATCC 43504 infected (MOI 200:1) in human GES1 cell injury model assessed as viable cells at 50 uM pre-treated for 2 hrs followed by bacterial infection measured after 6 hrs by Annexin/V-FITC staining based flow cytometry analysis (reference value: 57.87%); assay type: functional; settings: time 8 hrs
GES1 [3] = experiment: Induction of ROS generation in human GES1 cells infected (25 to 400:1 MOI) with Helicobacter pylori ATCC 43504 assessed as decrease in fluorescence intensity at 25 to 50 uM by DCFH-DA based Immunofluorescence analysis; assay type: functional, cell-based; settings: dose 25-50 µM
Helicobacter pylori [4] = experiment: as §1, with “50:1)” for “200:1)”, “early apoptotic” for “viable”, “13.16 %)” for “57.87%)”; assay type: functional; settings: time 8 hrs
[5] = Acute toxicity in BALB/c mouse assessed as pathological abnormality in spleen at 1 g/Kg, po single dose administered for 7 days by HE staining based analysis; assay type: organism-based; settings: in vivo, 1000 mg/kg, 168 h, time 7 day
Helicobacter pylori [6] = experiment: Protection against Helicobacter pylori ATCC 43504 infected (MOI 50:1) in human GES1 cell injury model assessed as viable cells at 50 uM pre-treated for 2 hrs followed by bacterial infection measured after 6 hrs by Annexin/V-FITC staining based flow cytometry analysis (reference value: 81.14%); assay type: functional; settings: time 8 hrs
Helicobacter pylori [7] = experiment: (§2) Protection against Helicobacter pylori ATCC 43504 infected (MOI 400:1) in human GES1 cell injury model assessed as viable cells at 25 uM pre-treated for 2 hrs followed by bacterial infection measured after 6 hrs by Annexin/V-FITC staining based flow cytometry analysis (reference value: 37.61%); assay type: functional; settings: time 8 hrs
Helicobacter pylori [8] = experiment: as §2, with “100:1)” for “400:1)”, “early apoptotic” for “viable”, “24.66 %)” for “37.61%)”; assay type: functional; settings: time 8 hrs
Helicobacter pylori [9] = experiment: Protection against Helicobacter pylori ATCC 43504 infected (MOI 50:1) in human GES1 cell injury model assessed as necrotic cells at 50 uM pre-treated for 2 hrs followed by bacterial infection measured after 6 hrs by Annexin/V-FITC staining based flow cytometry analysis (reference value: 2.85%); assay type: functional; settings: time 8 hrs
Helicobacter pylori [10] = experiment: as §1, with “early apoptotic” for “viable”, “31.93 %)” for “57.87%)”; assay type: functional; settings: time 8 hrs
Helicobacter pylori [11] = experiment: Protection against Helicobacter pylori ATCC 43504 infected (MOI 100:1) in human GES1 cell injury model assessed as viable cells at 50 uM pre-treated for 2 hrs followed by bacterial infection measured after 6 hrs by Annexin/V-FITC staining based flow cytometry analysis (reference value: 68.36%); assay type: functional; settings: time 8 hrs
Helicobacter pylori [12] = experiment: as §2, with “25:1)” for “400:1)”, “early apoptotic” for “viable”, “9.89%)” for “37.61%)”; assay type: functional; settings: time 8 hrs
GES1 [13] = experiment: Cytotoxicity against human GES1 cells at upto 75 uM by MTT assay; assay type: toxicity, cell-based; settings: ges1, 75 µM
[14] = Acute toxicity in BALB/c mouse assessed as change in body weight at 1 g/Kg, po single dose administered for 7 days; assay type: organism-based; settings: in vivo, 1000 mg/kg, 168 h, time 7 day
[15] = Stability of the compound in simulated gastric fluid; assay type: physicochemical; settings: simulated gi fluid
Helicobacter pylori [16] = experiment: as §1, with “400:1)” for “200:1)”, “early apoptotic” for “viable”, “42.41 %)” for “57.87%)”; assay type: functional; settings: time 8 hrs
Helicobacter pylori [17] = experiment: as §1, with “25:1)” for “200:1)”, “early apoptotic” for “viable”, “9.89%)” for “57.87%)”; assay type: functional; settings: time 8 hrs
[18] = Acute toxicity in BALB/c mouse assessed as pathological abnormality in heart at 1 g/Kg, po single dose administered for 7 days by HE staining based analysis; assay type: organism-based; settings: in vivo, 1000 mg/kg, 168 h, time 7 day
Helicobacter pylori [19] = experiment: In vivo protection against Helicobacter pylori ATCC 43504 infected in BALB/c mouse gastric mucosa model assessed as effect on hyperplasia at low dose administered once a day for 2 weeks by HE staining based analysis; assay type: functional, organism-based
Helicobacter pylori [20] = experiment: Protection against Helicobacter pylori ATCC 43504 infected (MOI 50:1) in human GES1 cell injury model assessed as late apoptotic cells at 25 uM pre-treated for 2 hrs measured after 6 hrs by Annexin/V-FITC staining based flow cytometry analysis (reference value: 2.85%); assay type: functional; settings: time 8 hrs
Helicobacter pylori [21] = experiment: Protection against Helicobacter pylori ATCC 43504 infected (MOI 25:1) in human GES1 cell injury model assessed as viable cells at 25 uM pre-treated for 2 hrs measured after 6 hrs by Annexin/V-FITC staining based flow cytometry analysis (reference value: 89.14%); assay type: functional; settings: time 8 hrs
Helicobacter pylori [22] = experiment: as §2, with “reduction in cell apoptosis rate” for “viable cells”, “56.03%)” for “37.61%)”; assay type: functional; set-up: scale not given: the % may be the effect or the level left; settings: time 8 hrs
Helicobacter pylori [23] = experiment: Protection against Helicobacter pylori ATCC 43504 infected (MOI 100:1) in human GES1 cell injury model assessed as viable cells followed by bacterial infection at 25 uM pre-treated for 2 hrs measured after 6 hrs by Annexin/V-FITC staining based flow cytometry analysis (reference value: 68.36%); assay type: functional; settings: time 8 hrs
Helicobacter pylori [24] = experiment: Protection against Helicobacter pylori ATCC 43504 infected (MOI 400:1) in human GES1 cell injury model assessed as necrotic cells at 50 uM pre-treated for 2 hrs followed by bacterial infection measured after 6 hrs by Annexin/V-FITC staining based flow cytometry analysis (reference value: 6.36%); assay type: functional; settings: time 8 hrs
[25] = Acute toxicity in BALB/c mouse assessed as change in stool consistency at 1 g/Kg, po single dose administered for 7 days; assay type: organism-based; settings: in vivo, 1000 mg/kg, 168 h, time 7 day
Helicobacter pylori [26] = experiment: Protection against Helicobacter pylori ATCC 43504 infected (MOI 400:1) in human GES1 cell injury model assessed as necrotic cells at 25 uM pre-treated for 2 hrs followed by bacterial infection measured after 6 hrs by Annexin/V-FITC staining based flow cytometry analysis (reference value: 6.36%); assay type: functional; settings: time 8 hrs
Helicobacter pylori [27] = experiment: In vivo protection against Helicobacter pylori ATCC 43504 infected in BALB/c mouse gastric mucosa model assessed as effect on inflammatory cell infiltration at 25 mg/kg administered once a day for 2 weeks by HE staining based analysis; assay type: functional, organism-based
Helicobacter pylori [28] = experiment: Protection against Helicobacter pylori ATCC 43504 infected (MOI 200:1) in human GES1 cell injury model assessed as necrotic cells at 50 uM pre-treated for 2 hrs followed by bacterial infection measured after 6 hrs by Annexin/V-FITC staining based flow cytometry analysis (reference value: 3.92%); assay type: functional; settings: time 8 hrs
Helicobacter pylori [29] = experiment: (§3) Protection against Helicobacter pylori ATCC 43504 infected (MOI 100:1) in human GES1 cell injury model assessed as late apoptotic cells at 25 uM pre-treated for 2 hrs followed by bacterial infection measured after 6 hrs by Annexin/V-FITC staining based flow cytometry analysis (reference value: 4.16%); assay type: functional; settings: time 8 hrs
Helicobacter pylori [30] = experiment: as §3, with “300:1)” for “100:1)”, “50” for “25”, “11.95%)” for “4.16%)”; assay type: functional; settings: time 8 hrs

In the case of `O=C(Oc1n[se]c2ccccc12)c1cccc(F)c1`, the Activity (Helicobacter pylori [1]) is reported as “Active”, the Activity (Helicobacter pylori [2]) is reported as 94.61% and the Activity (GES1 [3]) is reported as “Active”. For the same compound, the Activity (Helicobacter pylori [4]) was 2.91%, the Activity [5] was “Non-toxic” and the Activity (Helicobacter pylori [6]) was 97.06%. For the same compound, the Activity (Helicobacter pylori [7]) was 82.13%, the Activity (Helicobacter pylori [8]) was 7.64% and the Activity (Helicobacter pylori [9]) was 0.02%. It also gave an Activity (Helicobacter pylori [10]) of 4.38%, an Activity (Helicobacter pylori [11]) of 96.82% and an Activity (Helicobacter pylori [12]) of 1.51%. For the same compound, the Activity (GES1 [13]) was “Non-toxic”, the Activity [14] was “Non-toxic” and the Stability [15] was “Stable”. For the same compound, the Activity (Helicobacter pylori [16]) was 7.61%, the Activity (Helicobacter pylori [17]) was 0.51% and the Activity [18] was “Non-toxic”. The Activity (Helicobacter pylori [19]) was “inactive”, the Activity (Helicobacter pylori [20]) was 0.05% and the Activity (Helicobacter pylori [21]) was 98.45%. It also gave an Activity (Helicobacter pylori [22]) of 38.48%, an Activity (Helicobacter pylori [23]) of 91.76% and an Activity (Helicobacter pylori [24]) of 2.26%. The Activity [25] was “Non-toxic”, the Activity (Helicobacter pylori [26]) was 0.32% and the Activity (Helicobacter pylori [27]) was “Active”. It also gave an Activity (Helicobacter pylori [28]) of 0.8%, an Activity (Helicobacter pylori [29]) of 0.17% and an Activity (Helicobacter pylori [30]) of 2.53%.
